Key:
5HT-uptake = molecular target: T1, 5HT-uptake (Rattus norvegicus, UniProt P31652); test: biochemical; details: read-out: 5HT-uptake [10 μM], % inhibition
T1 construct: synaptosomes were freshly isolated from areas of rats' brains

NA-uptake = NA-uptake (Rattus norvegicus, UniProt Q63380); test: biochemical; details: read-out: NA-uptake [10 μM], % inhibition
Chain of NA-uptake (Q63380 1-617): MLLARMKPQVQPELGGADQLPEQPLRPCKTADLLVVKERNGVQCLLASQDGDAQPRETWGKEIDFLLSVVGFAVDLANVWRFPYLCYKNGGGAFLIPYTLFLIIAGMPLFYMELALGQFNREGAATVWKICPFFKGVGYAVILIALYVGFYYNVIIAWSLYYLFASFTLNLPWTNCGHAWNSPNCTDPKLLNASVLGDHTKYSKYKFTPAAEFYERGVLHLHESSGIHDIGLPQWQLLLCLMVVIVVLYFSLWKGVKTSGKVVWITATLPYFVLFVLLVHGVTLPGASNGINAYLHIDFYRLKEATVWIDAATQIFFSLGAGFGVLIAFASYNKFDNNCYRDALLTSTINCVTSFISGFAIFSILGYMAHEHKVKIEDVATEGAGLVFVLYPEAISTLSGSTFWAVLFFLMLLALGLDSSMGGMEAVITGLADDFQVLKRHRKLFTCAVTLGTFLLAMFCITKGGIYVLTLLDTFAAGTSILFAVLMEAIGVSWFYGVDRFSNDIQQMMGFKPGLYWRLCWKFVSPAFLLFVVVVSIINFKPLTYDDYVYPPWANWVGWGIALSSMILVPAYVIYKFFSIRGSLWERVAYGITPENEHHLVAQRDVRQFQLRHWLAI

T1 sequence (P31652 whole entry): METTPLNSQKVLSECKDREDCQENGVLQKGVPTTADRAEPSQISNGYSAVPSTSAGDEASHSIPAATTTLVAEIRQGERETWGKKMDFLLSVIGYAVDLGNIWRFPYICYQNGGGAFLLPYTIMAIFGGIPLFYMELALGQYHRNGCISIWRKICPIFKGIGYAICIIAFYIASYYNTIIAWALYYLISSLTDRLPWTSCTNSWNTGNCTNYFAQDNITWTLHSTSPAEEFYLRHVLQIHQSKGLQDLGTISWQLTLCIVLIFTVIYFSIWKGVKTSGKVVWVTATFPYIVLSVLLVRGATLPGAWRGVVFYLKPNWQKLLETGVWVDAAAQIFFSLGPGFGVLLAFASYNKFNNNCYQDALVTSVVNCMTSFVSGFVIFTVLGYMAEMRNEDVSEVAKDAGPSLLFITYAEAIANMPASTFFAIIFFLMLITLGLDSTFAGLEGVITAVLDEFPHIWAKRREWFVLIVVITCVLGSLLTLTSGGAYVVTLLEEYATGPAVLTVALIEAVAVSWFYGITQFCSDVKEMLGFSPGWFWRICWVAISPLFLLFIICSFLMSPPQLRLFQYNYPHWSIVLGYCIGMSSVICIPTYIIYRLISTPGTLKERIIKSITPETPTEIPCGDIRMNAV

`CN(C)C1(Cc2cccc(Cl)c2)CCC(NC(=O)CCC(=O)NCC2CCCO2)CC1` (stereo not drawn) [Example 29, N-[4-(3-chloro-benzyl)-4-dimethylamino-cyclohexyl]-N′-(tetrahydro-furan-2-ylmethyl)-succinamide] was tested, and the inhibition at 10 µM (5HT-uptake) was 94% and the inhibition at 10 µM (NA-uptake) was 91%.

`CCOc1ccccc1CNC(=O)CCC(=O)NC1CCC(Cc2ccc(C)cc2)(N(C)C)CC1` (stereo not drawn) [Example 138, N-[4-dimethylamino-4-(4-methyl-benzyl)-cyclohexyl]-N′-(2-ethoxy-benzyl)-succinamide] showed an inhibition at 10 µM (5HT-uptake) of 92% and an inhibition at 10 µM (NA-uptake) of 84%.

In the case of `CN(C)C1(Cc2ccc(Cl)cc2)CCC(NC(=O)CCC(=O)NCCC(c2ccccc2)c2ccccc2)CC1` (stereo not drawn) [Example 3, N-[4-(4-chloro-benzyl)-4-dimethylamino-cyclohexyl]-N′-(3,3-diphenyl-propyl)-succinamide], the inhibition at 10 µM (5HT-uptake) is reported as 94% and the inhibition at 10 µM (NA-uptake) is reported as 89%.

With `Cc1ccc(CCNC(=O)CCC(=O)NC2CCC(Cc3ccc(C)cc3)(N(C)C)CC2)cc1` (stereo not drawn) [Example 168, N-[4-dimethylamino-4-(4-methyl-benzyl)-cyclohexyl]-N′-(2-p-tolyl-ethyl)-succinamide] the inhibition at 10 µM (5HT-uptake) was 92% and the inhibition at 10 µM (NA-uptake) was 96%.

In the case of `Cc1cnc(C(=O)N2CCN(C(=O)CCCC(=O)NC3CCC(Cc4ccccc4)(N(C)C)CC3)CC2)cn1` (stereo not drawn) [Example 41, 5-[4-(5-methyl-pyrazin-2-carbonyl)-piperazin-1-yl]-5-oxo-valeric acid (4-benzyl-4-dimethylamino-cyclohexyl)-amide], the inhibition at 10 µM (5HT-uptake) is reported as 92% and the inhibition at 10 µM (NA-uptake) is reported as 90%.

With `Cc1ccc(CC2(N(C)C)CCC(NC(=O)CCC(=O)NC(C)C(=O)OC(C)(C)C)CC2)cc1` (stereo not drawn) [Example 61, 2-{3-[4-dimethylamino-4-(4-methyl-benzyl)-cyclohexylcarbamoyl]-propionylamino}-propanoic acid-tert-butylester] the inhibition at 10 µM (5HT-uptake) was 92% and the inhibition at 10 µM (NA-uptake) was 93%.

Work on `C=CCN(C)C(=O)CCC(=O)NC1CCC(Cc2ccc(Cl)cc2)(N(C)C)CC1` (stereo not drawn) [Example 17, N-allyl-N′-[4-(4-chloro-benzyl)-4-dimethylamino-cyclohexyl]-N-methyl-succinamide] yielded an inhibition at 10 µM (5HT-uptake) of 93% and an inhibition at 10 µM (NA-uptake) of 82%.

`COC(=O)C(Cc1ccc(Cl)cc1)NC(=O)CCC(=O)NC1CCC(Cc2ccc(C)cc2)(N(C)C)CC1` (stereo not drawn) [Example 32, 3-(4-chloro-phenyl)-2-{3-[4-dimethylamino-4-(4-methyl-benzyl)-cyclohexylcarbamoyl]-propionylamino}-propanoic acid methylester] gave an inhibition at 10 µM (5HT-uptake) of 99% and an inhibition at 10 µM (NA-uptake) of 97%.

`CCC(NC(=O)CCC(=O)NC1CCC(Cc2ccc(Cl)cc2)(N(C)C)CC1)c1ccccc1` (stereo not drawn) [Example 135, N-[4-(4-chloro-benzyl)-4-dimethylamino-cyclohexyl]-N′-(1-phenyl-propyl)-succinamide] showed an inhibition at 10 µM (5HT-uptake) of 92% and an inhibition at 10 µM (NA-uptake) of 96%.

With `Cc1ccc(CC2(N(C)C)CCC(NC(=O)CCC(=O)NC3CCN(Cc4c(Cl)cccc4Cl)C3)CC2)cc1` (stereo not drawn) [Example 1, N-[1-(2,6-dichloro-benzyl)-pyrrolidin-3-yl]-N′-[4-dimethylamino-4-(4-methyl-benzyl)-cyclohexyl]-succinamide] the inhibition at 10 µM (5HT-uptake) was 93% and the inhibition at 10 µM (NA-uptake) was 71%.

Work on `CN(CCc1c[nH]c2ccccc12)C(=O)CCC(=O)NC1CCC(Cc2cccc(Cl)c2)(N(C)C)CC1` (stereo not drawn) [Example 53, N-[4-(3-chloro-benzyl)-4-dimethylamino-cyclohexyl]-N′-[2-(1H-indol-3-yl)-ethyl]-N′-methyl-succinamide] yielded an inhibition at 10 µM (5HT-uptake) of 93% and an inhibition at 10 µM (NA-uptake) of 94%.

Molecule `CN(C)C1(Cc2ccc(Cl)cc2)CCC(NC(=O)CCC(=O)N2CCC3(CC2)OCCO3)CC1` (stereo not drawn) [Example 65, N-[4-(4-chloro-benzyl)-4-dimethylamino-cyclohexyl]-4-(1,4-dioxa-8-aza-spiro[4.5]dec-8-yl)-4-oxo-butyramide] has an inhibition at 10 µM (5HT-uptake) of 92% and an inhibition at 10 µM (NA-uptake) of 84%.

`CN(C)C1(Cc2ccc(Cl)cc2)CCC(NC(=O)CCC(=O)N2CC=C(c3ccc(F)cc3)CC2)CC1` (stereo not drawn) [Example 104, N-[4-(4-chloro-benzyl)-4-dimethylamino-cyclohexyl]-4-[4-(4-fluoro-phenyl)-3,6-dihydro-2H-pyridin-1-yl]-4-oxo-butyramide] showed an inhibition at 10 µM (5HT-uptake) of 93% and an inhibition at 10 µM (NA-uptake) of 84%.

For `COc1ccc(CCN(C)C(=O)CCC(=O)NC2CCC(Cc3cccc(C)c3)(N(C)C)CC2)cc1OC` (stereo not drawn) [Example 71, N-[2-(3,4-dimethoxy-phenyl)-ethyl]-N′-[4-dimethylamino-4-(3-methyl-benzyl)-cyclohexyl]-N-methyl-succinamide], the inhibition at 10 µM (5HT-uptake) was 92% and the inhibition at 10 µM (NA-uptake) was 94%.

In the case of `Cc1ccc(CC2(N(C)C)CCC(NC(=O)CCC(=O)N3CCN(c4ccccc4C)CC3)CC2)cc1` (stereo not drawn) [Example 94, N-[4-dimethylamino-4-(4-methyl-benzyl)-cyclohexyl]-4-oxo-4-(4-o-tolyl-piperazin-1-yl)-butyramide], the inhibition at 10 µM (5HT-uptake) is reported as 92% and the inhibition at 10 µM (NA-uptake) is reported as 86%.

`COc1cc(CN2CCN(C(=O)CCC(=O)NC3CCC(Cc4ccc(C)cc4)(N(C)C)CC3)CC2)cc2c1OCO2` (stereo not drawn) [Example 4, N-[4-dimethylamino-4-(4-methyl-benzyl)-cyclohexyl]-4-[4-(7-methoxy-benzo[1,3]dioxol-5-ylmethyl)-piperazin-1-yl]-4-oxo-butyramide] gave an inhibition at 10 µM (5HT-uptake) of 92% and an inhibition at 10 µM (NA-uptake) of 89%.

`Cc1cccc(CC2(N(C)C)CCC(NC(=O)CCC(=O)N3CCC(Cc4ccccc4)CC3)CC2)c1` (stereo not drawn) [Example 103, 4-(4-benzyl-piperidin-1-yl)-N-[4-dimethylamino-4-(3-methyl-benzyl)-cyclohexyl]-4-oxo-butyramide] gave an inhibition at 10 µM (5HT-uptake) of 94% and an inhibition at 10 µM (NA-uptake) of 108%.

`Cc1ccc(CC2(N(C)C)CCC(NC(=O)CCC(=O)N3CC=C(c4ccccc4)CC3)CC2)cc1` (stereo not drawn) [Example 87, N-[4-dimethylamino-4-(4-methyl-benzyl)-cyclohexyl]-4-oxo-4-(4-phenyl-3,6-dihydro-2H-pyridin-1-yl)-butyramide] was tested, and the inhibition at 10 µM (5HT-uptake) was 96% and the inhibition at 10 µM (NA-uptake) was 94%.

Molecule `CCN(Cc1ccncc1)C(=O)CCC(=O)NC1CCC(Cc2ccc(Cl)cc2)(N(C)C)CC1` (stereo not drawn) [Example 70, N-[4-(4-chloro-benzyl)-4-dimethylamino-cyclohexyl]-N′-ethyl-N′-pyridin-4-ylmethyl-succinamide] has an inhibition at 10 µM (5HT-uptake) of 93% and an inhibition at 10 µM (NA-uptake) of 96%.

With `COc1ccc(NC(=O)CCC(=O)NC2CCC(Cc3ccc(Cl)cc3)(N(C)C)CC2)cc1` (stereo not drawn) [Example 108, N-[4-(4-chloro-benzyl)-4-dimethylamino-cyclohexyl]-N′-(4-methoxy-phenyl)-succinamide] the inhibition at 10 µM (5HT-uptake) was 94% and the inhibition at 10 µM (NA-uptake) was 100%.

`Cc1ccc(CC2(N(C)C)CCC(NC(=O)CCC(=O)N(C)CCc3c[nH]c4ccccc34)CC2)cc1` (stereo not drawn) [Example 36, N-[4-dimethylamino-4-(4-methyl-benzyl)-cyclohexyl]-N′-[2-(1H-indol-3-yl)-ethyl]-N′-methyl-succinamide] showed an inhibition at 10 µM (5HT-uptake) of 96% and an inhibition at 10 µM (NA-uptake) of 93%.

From patent publication US8088763B2 (priority 2004, dated 2012)
